# Experiments:
# human UDG [1] = molecular target: T1, human UDG (Homo sapiens, UniProt P13051); assay: High-throughput screening assay: UDG-mediated unquenching of fluorescent uracil DNA hairpin; assay type: biochemical; design: 6xHis; purchased XTAL Biostructures; host or cells: Sf9 insect cells; settings: purified human UDG, initial value, read-out: IC50 for the purified human UDG (un-quenching of fluorescence from the DNA hairpin)
# Protocol: FIGS. 1(A-D) illustrate high-Throughput Small-Molecule Screening for UDG Inhibitors. A: 60 min reaction time-course experiment was performed to measure human UDG enzymatic activity in the presence of 10 nM UDG (red line) or absence of UDG (black line) uracil DNA hairpin (25 nM) only control. Each data point is the average of 12 reaction replicates from a 384-well plate. Error bars represent the standard deviation from the mean. B: Two independent screens using a plate of 320 compounds were plotted on the same graph with the trend line showing a positive correlation between the two runs with an R2 value of 0.711 using y=mx+b. […] Normalized percent activity of UDG-mediated unquenching of fluorescence DNA hairpin is shown. […] Control condition denotes RFU-UDG AVG (DNA alone no protein); the average relative fluorescence unit (RFU) value was computed using a set of 32 replicate wells per screening plate. […]
# The collection of biologically active molecules was compiled from the LOPAC library (Sigma Aldrich) and Bioactive Compound Library (Selleck Chemicals). […] After 40 min of incubation at room temperature (˜23° C.), fluorescence measurements were done using an Enspire plate reader (Perkin Elmer) at an excitation wavelength of 485 nm and emission wavelength of 520 nm. Compound performance from per plate was calculated and normalized accounting for background fluorescence by the following equation: […]
# Target sequence in this assay (P13051 1-304 isoform P13051-2): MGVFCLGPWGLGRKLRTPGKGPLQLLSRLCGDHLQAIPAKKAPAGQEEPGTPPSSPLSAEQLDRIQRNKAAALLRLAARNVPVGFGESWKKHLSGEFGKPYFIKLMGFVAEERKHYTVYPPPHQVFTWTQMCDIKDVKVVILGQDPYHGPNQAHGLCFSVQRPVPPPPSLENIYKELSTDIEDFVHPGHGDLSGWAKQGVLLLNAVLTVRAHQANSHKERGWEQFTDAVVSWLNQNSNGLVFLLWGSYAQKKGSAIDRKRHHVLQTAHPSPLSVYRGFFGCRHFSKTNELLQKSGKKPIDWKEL
# human UDG [2] = molecular target: T1, human UDG; assay: Time course of human UDG activity on uracil DNA hairpin; assay type: biochemical; design: Bacterially expressed and purified full-length human UDG; made in house
# Source text: RFU was monitored over time. Each point on plot represents an average of three replicates. Error bar represents standard deviation from the mean. […] Each data point on the plot is the average of 3 wells (DMSO condition). Error bars represent standard deviation from the mean. […] UDG protein was not added to each reaction. […] Fluorescently labeled FAM-uDNA hairpin was monitored over the melting of the DNA hairpin. […] Each point represents an average of 4 experimental wells. Y Error bars represent the standard deviation from the mean.
# To better examine UDG inhibitor activity, we monitored human UDG activity over time.
# Target sequence in this assay (P13051 whole entry): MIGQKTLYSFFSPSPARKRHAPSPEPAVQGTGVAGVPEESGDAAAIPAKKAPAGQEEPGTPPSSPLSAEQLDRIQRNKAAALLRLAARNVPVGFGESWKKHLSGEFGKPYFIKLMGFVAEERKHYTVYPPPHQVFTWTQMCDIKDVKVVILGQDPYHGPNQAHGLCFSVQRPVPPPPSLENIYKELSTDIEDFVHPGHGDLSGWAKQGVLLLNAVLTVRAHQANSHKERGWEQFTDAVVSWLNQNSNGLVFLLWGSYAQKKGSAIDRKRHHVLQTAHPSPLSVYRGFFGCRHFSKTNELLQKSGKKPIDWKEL
# human UDG [3] = molecular target: T1, human UDG; assay: Differential scanning fluorimetry (nanoDSF), intrinsic tryptophan fluorescence and scattering; assay type: binding; design: Full-length UDG at 14 μM in 137 mM NaCl
# Protocol: The data for thermophoresis was recorded at 20° C. using the blue LED at 20% and IR-Laser at 40%. The isotherm derived from the raw data and fitted according to the law of mass action. […] Then 2 μL of 10× Sypro dye and 2 μL of ddH20 (Applied biosystems cat #4461141) were added. Monitoring of fluorescence took place for 2 hr (Bioraid CFX96, Hex filter, 25-97° C., 1.6° C./2 min). Negative (−) derivative RFU raw data and plots from the machine were obtained and analyzed. […] Melting temperature (Tm) value was taken directly from the midpoint on the −dRFU/dt vs. temperature graph. Each point on the graph represents an average of three data sets. Y error bars represent the standard deviation.
# Differential scanning fluorimetry (DSF) measurements were performed on a Prometheus NT.48 instrument (NanoTemper Technologies, Munich, Germany). […] The capillaries were filled with 10 μL sample and placed on the sample holder. A temperature gradient of 1° C.·min^−1 from 25 to 90° C. was applied and the intrinsic protein fluorescence at 330 and 350 nm was recorded. Additional aggregation onset temperatures are detected via back-reflection light scattering. […] Therefore, analysis of single wavelength was used to determine the melting temperature.
# Target sequence in this assay (P13051 whole entry): as above
smiles,measurement,setting,value
"O=C(O)C1=CC(=C(c2ccc(O)c(C(=O)O)c2)c2ccc(O)c(C(=O)O)c2)C=CC1=O [ATA, aurintricarboxylic acid]",IC50,human UDG [1],40 nM
same,reduction of UDG-mediated un-quenching of u-DNA hairpin,"human UDG [2]; ATA below 250 nM, fixed DNA substrate, 5-hour time course",unable to significantly compete
same,UDG activity over time,"human UDG [2]; ATA fixed dose of 500 nM, range of uracil DNA hairpin concentrations",persistently diminished UDG activity
same,protein aggregation onset (scattering),human UDG [3]; UDG in the presence of ATA vs UDG alone,induced protein aggregation at lower temperatures than UDG alone
same,mean melting temperature of UDG in the presence of ATA,"human UDG [3]; nanoDSF, 330 nm, UDG alone 53.5 °C",51 °C
